Where two headings read alike, the source gives them in different places.
How the values were obtained:
[1] = molecular target: T1, ACAT 2 (Acyl CoA-Cholesterol Acyltransferase 2) (Rattus norvegicus, UniProt Q7TQM4); conditions: reported value; read-out: ACAT 2 reported IC50 of reference compound; cited from earlier work
T1 construct: Briefly hepatic microsomes were prepared from the Wistar rats; from tissue; host or cells: liver (hepatic microsomes) of Wistar rats
T1 sequence (Q7TQM4 1-524): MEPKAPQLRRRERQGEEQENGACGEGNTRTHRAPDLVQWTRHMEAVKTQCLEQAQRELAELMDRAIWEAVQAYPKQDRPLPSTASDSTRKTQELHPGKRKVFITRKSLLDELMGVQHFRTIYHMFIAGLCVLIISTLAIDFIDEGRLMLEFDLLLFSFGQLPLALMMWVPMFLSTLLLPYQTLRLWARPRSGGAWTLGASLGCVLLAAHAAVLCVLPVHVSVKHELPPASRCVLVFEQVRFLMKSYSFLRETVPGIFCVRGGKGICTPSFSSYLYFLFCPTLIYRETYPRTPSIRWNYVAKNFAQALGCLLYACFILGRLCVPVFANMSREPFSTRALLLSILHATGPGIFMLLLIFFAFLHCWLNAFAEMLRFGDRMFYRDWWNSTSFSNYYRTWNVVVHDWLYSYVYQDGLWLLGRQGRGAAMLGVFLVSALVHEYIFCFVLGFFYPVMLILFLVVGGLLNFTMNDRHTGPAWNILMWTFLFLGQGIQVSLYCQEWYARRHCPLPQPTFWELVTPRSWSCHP

[2] = molecular target: T1, ACAT 2 (Acyl CoA-Cholesterol Acyltransferase 2); assay: In-vitro determination of inhibition of ACAT 2 (hepatic microsomes, [14C]-Palmitoyl CoA); assay type: biochemical, Wistar rats
Description: II. In-vitro Determination of Inhibition of ACAT 2 (Acyl CoA-Cholesterol Acyltransferase 2)
The in-vitro determination of the inhibition of the enzyme ACAT 2 by the compounds of the invention is carried out in principle as described in the publication of Largis EE, Wang CH, DeVries VG and Schaffer SA (1989), “A Novel inhibitor of ACAT-catalyzed cholesterol esterification and cholesterol absorption”, J. Lipid Res. 30, 681-689, (1989), whereby hepatic microsomes are used. The radio-substrate used is [^14C]-Palmitoyl CoA. The respective parts of the description are hereby incorporated by reference and forms part of the present disclosure.
Briefly hepatic microsomes were prepared from the Wistar rats. Enzyme inhibition experiments were performed in presence of 18 μM [^14C]-Palmitoyl CoA as substrate. The vehicle used was 1% DMSO. Compounds to be tested were present at various concentrations and the incubation buffer used was 0.2 M Phosphate buffer, pH 7.4 at 25° C. After a 15 minutes preincubation period at 37° C. an incubation period of 10 minutes at 37° C. followed. Quantification of [^14C]Cholesterol ester was done by column chromatography.

[3] = molecular target: T2, ACAT 1 (Acyl CoA-Cholesterol Acyltransferase 1) (Homo sapiens, UniProt P35610); assay: In-vitro determination of inhibition of ACAT 1 (microsomal membranes of U937 cells differentiated to macrophages, [14C]-Palmitoyl CoA); assay type: biochemical; conditions: for IC50: U937 macrophage microsomes; for inhibition at 30 µM: 3 × 10^−5 M; for inhibition at 30 µM / inhibition at 3 µM / inhibition at 100 µM / inhibition at 10 µM / inhibition at 1 µM: read-out: ACAT 1 Inhibition (%) at various concentration of example; for inhibition at 3 µM: 3 × 10^−6 M; for inhibition at 100 µM: 10^−4 M; for inhibition at 10 µM: 10^−5 M; for inhibition at 1 µM: 10^−6 M
T2 construct: Cells were collected, homogenized and microsomal membranes prepared; endogenous in cells; host or cells: U937 human monocyte cell line differentiated to macrophages with PMA; microsomal membranes
T2 sequence (P35610 1-550): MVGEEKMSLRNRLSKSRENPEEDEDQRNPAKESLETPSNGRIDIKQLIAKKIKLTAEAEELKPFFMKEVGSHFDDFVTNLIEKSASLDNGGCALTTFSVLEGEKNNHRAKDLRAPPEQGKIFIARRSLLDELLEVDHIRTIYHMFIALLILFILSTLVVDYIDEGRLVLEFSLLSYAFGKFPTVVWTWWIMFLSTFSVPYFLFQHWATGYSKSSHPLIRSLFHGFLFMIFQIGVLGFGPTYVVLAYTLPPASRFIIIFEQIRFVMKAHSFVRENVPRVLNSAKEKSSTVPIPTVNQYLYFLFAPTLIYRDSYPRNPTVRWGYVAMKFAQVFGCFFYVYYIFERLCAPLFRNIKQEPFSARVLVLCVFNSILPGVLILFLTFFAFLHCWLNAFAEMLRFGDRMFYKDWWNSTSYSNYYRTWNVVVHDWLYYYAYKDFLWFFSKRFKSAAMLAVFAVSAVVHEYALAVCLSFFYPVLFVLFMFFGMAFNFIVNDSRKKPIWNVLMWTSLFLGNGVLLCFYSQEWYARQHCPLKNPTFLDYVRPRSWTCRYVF
Description: I. In-vitro Determination of Inhibition of ACAT 1 (Acyl CoA-Cholesterol Acyltransferase 1)
The in-vitro determination of the inhibition of the enzyme ACAT 1 by the compounds of the invention is carried out in principle as described:
Human histiocytic monocyte cell line, U937 was differentiated to macrophages with Phorbol 12-myristate 13-acetate at a final concentration of 30 ng/mL for 72 hr. Cells were collected, homogenized and microsomal membranes prepared. Enzyme inhibition experiments were performed in the presence of 20 μM [^14]-Palmitoyl CoA as substrate. The vehicle used was 1% DMSO. Compounds to be tested were present at various concentrations and the incubation buffer used was 0.2M KH2PO4, 1 mM EDTA, 0.15% BSA, pH 7.4. After a 15 minutes preincubation period at 37° C. an incubation period of 1 hour at 37° C. followed. Quantification of [^14C]Cholesterol ester was done by column chromatography.

[4] = second ACAT 2 table, value marked * estimated from 2 different experiments
[5] = 3 × 10^−6 M, first ACAT 2 table, read-out: ACAT 2 Inhibition (%) at various concentration of example
[6] = 3 × 10^−6 M, second ACAT 2 table, column 4, read-out: ACAT 2 Inhibition (%) at various concentration of example
[7] = 3 × 10^−7 M, first ACAT 2 table, read-out: ACAT 2 Inhibition (%) at various concentration of example
[8] = 10^−5 M, first ACAT 2 table, read-out: ACAT 2 Inhibition (%) at various concentration of example
[9] = 10^−5 M, second ACAT 2 table, column 3, read-out: ACAT 2 Inhibition (%) at various concentration of example
[10] = 10^−6 M, first ACAT 2 table, read-out: ACAT 2 Inhibition (%) at various concentration of example

IC50 [2, 4]	IC50 [3]	Compound	IC50 ([2]; first ACAT 2 table)	inhibition at 3 µM [2, 5]	inhibition at 3 µM [2, 6]	inhibition at 0.3 µM [2, 7]	inhibition at 10 µM [2, 8]	inhibition at 10 µM [2, 9]	inhibition at 1 µM [2, 10]	inhibition at 30 µM [3]	inhibition at 3 µM [3]	inhibition at 100 µM [3]	inhibition at 10 µM [3]	inhibition at 1 µM [3]	other results
12.5 µM	9.6 µM	CC[C@H](C)C(=O)O[C@H]1C[C@@H](C)C=C2C=C[C@H](C)[C@H](CC[C@@H]3C[C@@H](O)CC(=O)O3)[C@H]21 [Lovastatin, reference compound]	22.7 µM	–	–	–	–	–	–	–	–	–	–	–	IC50 [1]: 29 µM
2 µM	4.84 µM	CC1C(c2ccccc2)C(C(=O)O)=NN1c1ccc(Cl)cc1Cl (stereo not shown) [Example 3, 1-(2,4-Dichloro-phenyl)-5-methyl-4-phenyl-4,5-dihydro-1H-pyrazole-3-carboxylic acid]	0.82 µM	75%	71%	29%	88%	86%	56%	74%	50%	86%	64%	17%	inhibition at 30 µM ([2]; 3 × 10^−5 M, first ACAT 2 table, read-out: ACAT 2 Inhibition (%) at various concentration of example): 92%; inhibition at 3 µM ([2]; 3 × 10^−6 M, second ACAT 2 table, repeated head, column 6, read-out: ACAT 2 Inhibition (%) at various concentration of example): 40%; inhibition at 10 µM ([2]; 10^−5 M, second ACAT 2 table, repeated head, column 5, read-out: ACAT 2 Inhibition (%) at various concentration of example): 65%
–	–	C[C@@H]1[C@@H](c2ccccc2)C(C(=O)NN2CCCCC2)=NN1c1ccc(Cl)cc1Cl.Cl (racemic) [Example 2, 1-(2,4-Dichloro-phenyl)-5-methyl-4-phenyl-4,5-dihydro-1H-pyrazole-3-carboxylic acid piperidin-1-ylamide; Hydrochloride]	1.42 µM	–	–	–	–	–	–	–	–	–	–	–	ACAT 2 Inhibition (%) at various concentration of example ([2]; 3 × 10^−5 M, second ACAT 2 table): 96%; ACAT 2 Inhibition (%) at various concentration of example ([2]; 3 × 10^−6 M, first ACAT 2 table): 70%; ACAT 2 Inhibition (%) at various concentration of example ([2]; 3 × 10^−7 M, first ACAT 2 table): 17%; ACAT 2 Inhibition (%) at various concentration of example ([2]; 10^−4 M, second ACAT 2 table): 100%; ACAT 2 Inhibition (%) at various concentration of example ([2]; 10^−5 M, first ACAT 2 table): 90%; ACAT 2 Inhibition (%) at various concentration of example ([2]; 10^−6 M, first ACAT 2 table): 39%; ACAT 2 Inhibition (%) at various concentration of example ([2]; 10^−7 M, first ACAT 2 table): 4%

Compound	IC50 [2, 4]	IC50 [3]	IC50 ([2]; first ACAT 2 table)	inhibition at 3 µM [2, 5]	inhibition at 3 µM [2, 6]	inhibition at 0.3 µM [2, 7]	inhibition at 10 µM [2, 8]	inhibition at 10 µM [2, 9]	inhibition at 1 µM [2, 10]	inhibition at 30 µM [3]	inhibition at 3 µM [3]	inhibition at 100 µM [3]	inhibition at 10 µM [3]	inhibition at 1 µM [3]	other results
C[C@@H]1[C@@H](c2ccccc2)C(C(=O)NN2CCCCC2)=NN1c1ccc(Cl)cc1Cl (racemic) [Example 1, 1-(2,4-Dichlorophenyl)-5-methyl-4-phenyl-4,5-dihydro-1H-pyrazole-3-carboxylic acid piperidin-1-ylamide]	< 3 µM	9.66 µM	1.28 µM	70%	74%	19%	94%	93%	44%	72%	38%	55%	65%	14%	inhibition at 30 µM ([2]; 3 × 10^−5 M, second ACAT 2 table, read-out: ACAT 2 Inhibition (%) at various concentration of example): 97%; inhibition at 100 µM ([2]; 10^−4 M, second ACAT 2 table, read-out: ACAT 2 Inhibition (%) at various concentration of example): 101%; inhibition at 0.1 µM ([2]; 10^−7 M, first ACAT 2 table, read-out: ACAT 2 Inhibition (%) at various concentration of example): -3%
